# Tested on: gene expression in Col-0 seedling shoots
# Experiment: Microarray analysis (ATH1 Affymetrix) after BL or abrasin treatment
# Type: in vivo, Arabidopsis
# Experimental: FIG. 14: Clustering of gene expression profiles by QT-clust analysis. Clusters illustrating the major patterns of the data sets. Points: BIK-30: 30 μM abrasin 30 min; BL-30: 1 μM brassinolide 30 min; DMSO-30: control DMSO 30 min; BIK-120: 30 μM abrasin 120 min; BL-120: 1 μM brassinolide 120 min; DMSO-120: control DMSO 120 min.
# Col-0 seeds were germinated vertically on ½ MS medium for 7 days under 16 h light/8 h dark cycles. The seedlings were overlaid with liquid ½ MS medium containing 1 μM brassinolide (BL, Fuji Chemical Industries, Ltd., Toyama, Japan), 30 μM abrasin (BIK, ChemBridge Corporation) and DMSO and treated for 30 and 120 min. The shoot parts were collected for RNA isolation. All sampling points were performed in three independent experiments. RNA was extracted using RNeasy kit (Qiagene). […] total RNA per array was used to hybridise the ATH1 Affymetrix Arabidopsis arrays according to standard procedure. The overrepresentation analyses were performed using BiNGO software (Maere et al., 2005).
# We performed a microarray analysis using the Arabidopsis whole genome chip (Affymetix) to determine whether abrasin activated the expression of BR-inducible genes at transcriptional level. Wild-type Col-0 seedlings were exposed to 1 μM BL, 30 μM ABRASIN and DMSO (mock-treatment) for two time points (30 min and 120 min) and the shoot parts were collected for RNA isolation. The analysis of the variance of the normalized gene expression data took in account the variability parameters affecting the expression level: type of hormone treatment, duration of treatment and the interaction between these two.
compound,measurement,setting,value
"O=C(O)CCC(=O)Nc1ccc(Br)cn1 [abrasin, 4-[(5-bromo-2-pyridinyl)amino]-4-oxobutanoic acid]","expression of BR biosynthesis genes (CPD, DWF4, BR6OX2), Cluster 1","1 μM BL, 30 μM ABRASIN",down-regulated
same,"expression of WRKY transcription factors, DOF-type proteins, lectin receptor-like kinases, U-box proteins, HAESA","1 μM BL, 30 μM ABRASIN",induces the expression
same,"expression of genes involved in the auxin pathway (IAA29, IAA2)","1 μM BL, 30 μM ABRASIN",significantly down-regulated
same,"induction of early auxin-inducible SAUR family genes, Cluster 3","1 μM BL, 30 μM ABRASIN, 30 and 120 min",had an effect only after 2 hours
same,Fold-change AT1G04330 expressed protein,30 min,1.17
same,Fold-change AT1G05470 endonuclease/exonuclease/phosphatase family protein,30 min,1.42
same,Fold-change AT1G06520 Encodes a membrane associated mitochondrial localized protein,30 min,1.26
same,Fold-change AT1G06570 4-hydroxyphenylpyruvate dioxygenase (HPD),30 min,0.91
same,Fold-change AT1G10550 xyloglucan:xyloglucosyl transferase,30 min,1.26
same,Fold-change AT1G12710 F-box family protein,30 min,0.88
same,Fold-change AT1G12750 rhomboid family protein,30 min,1.46
same,Fold-change AT1G14130 2-oxoglutarate-dependent dioxygenase,30 min,1.10
same,Fold-change AT1G14700 purple acid phosphatase,30 min,0.53
same,Fold-change AT1G16640 transcriptional factor B3 family protein,30 min,1.14
same,Fold-change AT1G17230 leucine-rich repeat family protein,30 min,1.09
same,"Fold-change AT1G18020; AT1G17990 [AT1G18020, 12-oxophytodienoate reductase,",30 min,1.31
same,Fold-change AT1G19320 pathogenesis-related thaumatin family protein,30 min,0.52
same,Fold-change AT1G20350 mitochondrial import inner membrane translocase subunit,30 min,1.00
same,Fold-change AT1G21050 expressed protein,30 min,0.32
same,Fold-change AT1G21760 F-box family protein,30 min,0.76
same,Fold-change AT1G22360 UDP-glucoronosyl/UDP-glucosyl transferase family protein,30 min,0.82
same,Fold-change AT1G23080 auxin efflux carrier protein (PIN7),30 min,0.81
same,"Fold-change AT1G26800 zinc finger (C3HC4-type RING finger) family protein,",30 min,1.07
same,Fold-change AT1G27730 zinc finger (C2H2 type) family protein,30 min,0.56
same,Fold-change AT1G28130 encodes an IAA-amido synthase,30 min,0.64
same,Fold-change AT1G28190 expressed protein,30 min,2.79
same,Fold-change AT1G28480 glutaredoxin family protein,30 min,1.02
same,Fold-change AT1G31040 zinc-binding protein-related,30 min,1.35
same,Fold-change AT1G31310 hydroxyproline-rich glycoprotein family protein,30 min,1.17
same,Fold-change AT1G31770 ABC transporter family protein,30 min,0.91
same,Fold-change AT1G32190 expressed protein,30 min,0.73
same,Fold-change AT1G32690 expressed protein,30 min,0.38
same,Fold-change AT1G36940 expressed protein,30 min,0.45
same,Fold-change AT1G49780 U-box domain-containing protein,30 min,0.71
same,"Fold-change AT1G53870; AT1G53890 [AT1G53870, expressed protein",30 min,0.43
same,Fold-change AT1G54050 17.4 kDa class III heat shock protein (HSP17.4-CIII),30 min,1.16
same,Fold-change AT1G54200 expressed protein,30 min,1.26
same,Fold-change AT1G55920 serine O-acetyltransferase,30 min,2.19
same,Fold-change AT1G57560 myb family transcription factor (MYB50),30 min,1.19
same,Fold-change AT1G59590 expressed protein,30 min,1.99
same,Fold-change AT1G59660 nucleoporin family proteinmily,30 min,1.45
same,Fold-change AT1G62300 WRKY family transcription factor,30 min,1.58
same,Fold-change AT1G63050 membrane bound O-acyl transferase (MBOAT) family protein,30 min,0.75
same,"Fold-change AT1G66160 U-box domain-containing protein,",30 min,2.03
same,Fold-change AT1G66890 expressed protein,30 min,0.65
same,Fold-change AT1G68330 expressed protein,30 min,1.76
same,Fold-change AT1G68810 basic helix-loop-helix (bHLH) family protein,30 min,0.80
same,Fold-change AT1G69160 expressed protein,30 min,0.67
same,Fold-change AT1G70990 proline-rich family protein,30 min,1.70
same,Fold-change AT1G71030 Encodes a putative myb family transcription factor,30 min,0.92
same,Fold-change AT1G72060 expressed protein,30 min,2.19
same,Fold-change AT1G72180 leucine-rich repeat transmembrane protein kinase,30 min,0.54
same,"Fold-change AT1G72800 nuM1-related, contains",30 min,1.15
same,Fold-change AT1G75270 dehydroascorbate reductase,30 min,1.16
same,Fold-change AT1G75500 nodulin MtN21 family protein,30 min,0.67
same,"Fold-change AT1G76240 expressed protein,",30 min,0.40
same,Fold-change AT1G76410 zinc finger (C3HC4-type RING finger),30 min,0.54
same,Fold-change AT1G79110 expressed protein,30 min,0.66
same,Fold-change AT1G79630 protein phosphatase 2C family protein,30 min,0.62
same,Fold-change AT1G80440 kelch repeat-containing F-box family protein,30 min,1.36
same,Fold-change AT2G01300 expressed protein,30 min,0.73
same,"Fold-change AT2G01990 expressed protein,",30 min,1.89
same,Fold-change AT2G04240 zinc finger (C3HC4-type RING finger) family protein,30 min,0.77
same,Fold-change AT2G05540 glycine-rich protein,30 min,0.71
same,"Fold-change AT2G12290; AT4G19700 [AT2G12290, expressed protein]; [AT4G19700, expressed protein]",30 min,0.38
same,Fold-change AT2G18010 auxin-responsive family protein (SAUR10),30 min,1.35
same,Fold-change AT2G19800 expressed protein,30 min,2.29
same,Fold-change AT2G22860 phytosulfokines 2 (PSK2),30 min,0.68
same,"Fold-change AT2G23180 cytochrome P450, putative",30 min,0.67
same,Fold-change AT2G23320 WRKY family transcription factor,30 min,1.41
same,Fold-change AT2G26530 expressed protein,30 min,1.24
same,Fold-change AT2G26710 cytochrome p450 family (BAS1),30 min,0.72
same,Fold-change AT2G28510 Dof-type zinc finger domain-containing protein,30 min,1.28
same,Fold-change AT2G29340 short-chain dehydrogenase/reductase (SDR) family protein,30 min,1.55
same,Fold-change AT2G29990 pyridine nucleotide-disulphide oxidoreductase family protein,30 min,1.43
same,Fold-change AT2G30070 potassium transporter (KUP1),30 min,0.61
same,Fold-change AT2G31230 encodes a member of the ERF (ethylene response factor),30 min,2.13
same,Fold-change AT2G34650 protein kinase PINOID (PID),30 min,1.04
same,Fold-change AT2G36220 expressed protein,30 min,1.10
same,Fold-change AT2G37590 Dof-type zinc finger domain-containing protein,30 min,1.52
same,Fold-change AT2G38470 WRKY family transcription factor,30 min,2.02
same,Fold-change AT2G39710 aspartyl protease family protein,30 min,2.42
same,"Fold-change AT2G40340; AT2G40350 [AT2G40340, encodes a member of the DREB subfamily A-2 of ERF/AP2",30 min,1.40
same,Fold-change AT2G41250 haloacid dehalogenase-like hydrolase family protein,30 min,0.82
same,Fold-change AT2G41640 expressed protein,30 min,1.96
same,Fold-change AT2G42280 basic helix-loop-helix (bHLH) family protein,30 min,0.67
same,"Fold-change AT2G43060 expressed protein, similar to cDNA bHLH transcription factor",30 min,0.31
same,Fold-change AT2G43280 far-red impaired responsive family protein,30 min,0.78
same,Fold-change AT2G43290 calmodulin-like protein (MSS3),30 min,0.81
same,Fold-change AT2G44130 kelch repeat-containing F-box family protein,30 min,1.13
same,Fold-change AT2G44500 expressed protein,30 min,1.26
same,Fold-change AT2G45210 auxin-responsive protein-related,30 min,0.34
same,Fold-change AT2G45680 TCP family transcription factor,30 min,0.50
same,Fold-change AT2G46225 Encodes a subunit of the WAVE complex,30 min,1.15
same,Fold-change AT2G47440 DNAJ heat shock N-terminal domain-containing protein,30 min,1.07
same,"Fold-change AT3G04210 disease resistance protein (TIR-NBS class), putative,",30 min,2.18
same,Fold-change AT3G09920 phosphatidylinositol-4-phosphate 5-kinase family protein,30 min,1.56
same,Fold-change AT3G12920 expressed protein,30 min,0.45
same,Fold-change AT3G13040 myb family transcription factor,30 min,0.93
same,Fold-change AT3G13510 expressed protein,30 min,0.85
same,Fold-change AT3G13980 expressed protein,30 min,0.25
same,Fold-change AT3G14370 protein kinase family protein,30 min,1.10
same,Fold-change AT3G14560 expressed protein,30 min,0.59
same,Fold-change AT3G16570 rapid alkalinization factor (RALF) family protein,30 min,0.54
same,Fold-change AT3G17860 expressed protein,30 min,0.78
same,Fold-change AT3G18830 polyol/cyclitol/monosaccharide-H+-symporte,30 min,1.64
same,Fold-change AT3G19380 U-box domain-containing protein,30 min,0.67
same,Fold-change AT3G23030 auxin-responsive protein/indoleacetic acid-induced protein 2 (IAA2),30 min,0.55
same,Fold-change AT3G23550 MATE efflux family protein,30 min,0.67
same,Fold-change AT3G25710 basic helix-loop-helix (bHLH) family protein,30 min,0.48
same,Fold-change AT3G25900 homocysteine S-methyltransferase 1 (HMT-1),30 min,1.32
same,Fold-change AT3G26910 hydroxyproline-rich glycoprotein family protein,30 min,2.49
same,Fold-change AT3G30180 cytochrome p450 enzyme,30 min,0.09
same,"Fold-change AT3G46880 expressed protein,",30 min,1.50
same,Fold-change AT3G47800 aldose 1-epimerase family protein,30 min,0.91
same,Fold-change AT3G48970 copper-binding family protein,30 min,0.40
same,Fold-change AT3G49810 U-box domain-containing protein,30 min,1.29
same,Fold-change AT3G50650 scarecrow-like transcription factor 7 (SCL7),30 min,1.51
same,Fold-change AT3G50660 steroid 22-alpha-hydroxylase (CYP90B1) (DWF4),30 min,0.47
same,Fold-change AT3G50750 brassinosteroid signalling positive regulator-related (BEH1),30 min,0.63
same,Fold-change AT3G52490 heat shock protein-related,30 min,1.17
same,Fold-change AT3G53810 lectin protein kinase,30 min,2.28
same,"Fold-change AT3G54950 patatin-related,",30 min,0.58
same,Fold-change AT3G55120 chalcone-flavanone isomerase,30 min,0.94
same,Fold-change AT3G55150 exocyst subunit EXO70 family protein,30 min,3.44
same,Fold-change AT3G55840 expressed protein,30 min,1.05
same,Fold-change AT3G61460 zinc finger (C3HC4-type RING finger) family protein (BRH1),30 min,0.43
same,Fold-change AT3G63300 expressed protein,30 min,1.26
same,Fold-change AT4G01680 myb family transcription factor (MYB55),30 min,0.21
same,Fold-change AT4G02410 lectin protein kinase family protein,30 min,2.60
same,"Fold-change AT4G08040 1-aminocyclopropane-1-carboxylate synthase, putative",30 min,0.08
same,Fold-change AT4G09460 myb family transcription factor,30 min,1.50
same,Fold-change AT4G12390 invertase/pectin methylesterase inhibitor family protein,30 min,0.75
same,Fold-change AT4G12410 auxin-responsive family protein,30 min,0.66
same,Fold-change AT4G14130 xyloglucan:xyloglucosyl transferase,30 min,0.37
same,Fold-change AT4G15975 zinc finger (C3HC4-type RING finger) family protein,30 min,2.33
same,Fold-change AT4G16146 expressed protein,30 min,0.91

# — patent publication US8273775B2, “Non-steroidal brassinosteroid mimetic” (priority 2006, dated 2012)
